Results taken from ChEMBL document CHEMBL1201862, “PubChem BioAssay data set” (2004).
The source made the active and inactive calls.

Columns and labels:
Type in all cases: functional
[1] = target: T1, Coagulation factor XII (Homo sapiens, UniProt P00748);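 also: activated factor XIIa alpha cleaving a fluorogenic AMC peptide substrate; inhibitor potency from loss of enzyme activity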
T1 sequence (P00748 whole entry): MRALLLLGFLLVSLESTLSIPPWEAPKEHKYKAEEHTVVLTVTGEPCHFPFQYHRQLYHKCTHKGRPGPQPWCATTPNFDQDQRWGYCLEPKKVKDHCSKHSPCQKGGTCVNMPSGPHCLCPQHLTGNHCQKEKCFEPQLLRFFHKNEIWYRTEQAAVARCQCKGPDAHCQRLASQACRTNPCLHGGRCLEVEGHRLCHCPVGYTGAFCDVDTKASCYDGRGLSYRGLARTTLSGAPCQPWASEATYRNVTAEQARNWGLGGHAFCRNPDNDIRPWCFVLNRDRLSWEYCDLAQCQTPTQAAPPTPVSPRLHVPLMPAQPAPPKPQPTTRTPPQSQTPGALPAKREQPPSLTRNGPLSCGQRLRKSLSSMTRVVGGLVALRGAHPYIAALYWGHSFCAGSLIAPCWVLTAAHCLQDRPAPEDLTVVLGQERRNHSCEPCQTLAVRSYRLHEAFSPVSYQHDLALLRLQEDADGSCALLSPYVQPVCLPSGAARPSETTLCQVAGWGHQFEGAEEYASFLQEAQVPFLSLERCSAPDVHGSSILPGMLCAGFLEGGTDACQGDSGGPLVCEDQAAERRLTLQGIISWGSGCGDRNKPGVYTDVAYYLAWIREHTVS

[2] = target: SWI/SNF-related matrix-associated actin-dependent regulator of chromatin subfamily A member 2 (Homo sapiens, UniProt P51531); test: Luminescence-based cell-based high throughput dose response assay to identify activators of the function of SWI/SNF related, matrix associated, actin dependent regulator of chromatin, subfamily a, member 2 (SMARCA2, BRM).
[3] = Counterscreen for activators of the function of SWI/SNF related, matrix associated, actin dependent regulator of chromatin, subfamily a, member 2 (SMARCA2, BRM): Luminescence-based cell-based high throughput dose response assay to identify non-selective compounds using the VP16 reporter assay.
[4] = viability loss in THP-1 monocytes – THP-1 cells, cytotoxicity control for Vif-APOBEC3G degradation inhibitor project, dose response (AID 1117359); conditions: THP-1
[5] = activation of miR-122 Renilla sensor silencing – cell-based, Huh7 psiCHECK-miR122, Renilla luciferase, cherry-picked, dose response (AID 651956);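 also: huh7 hepatoma cells stably carrying a psiCHECK-2 miR-122 sensor plasmid; renilla luciferase signal reporting endogenous miR-122 activity after 48 h compound exposure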
[6] = tested on: Vero; test: viability loss in Vero cells – cell-based, plate reader, cherry-pick samples, cytotoxicity control, dose response (AID 687020); conditions: Chlorocebus sabaeus

SWI/SNF-related matrix-associated actin-dependent regulator of chromatin subfamily A member 2, sequence (P51531 whole entry): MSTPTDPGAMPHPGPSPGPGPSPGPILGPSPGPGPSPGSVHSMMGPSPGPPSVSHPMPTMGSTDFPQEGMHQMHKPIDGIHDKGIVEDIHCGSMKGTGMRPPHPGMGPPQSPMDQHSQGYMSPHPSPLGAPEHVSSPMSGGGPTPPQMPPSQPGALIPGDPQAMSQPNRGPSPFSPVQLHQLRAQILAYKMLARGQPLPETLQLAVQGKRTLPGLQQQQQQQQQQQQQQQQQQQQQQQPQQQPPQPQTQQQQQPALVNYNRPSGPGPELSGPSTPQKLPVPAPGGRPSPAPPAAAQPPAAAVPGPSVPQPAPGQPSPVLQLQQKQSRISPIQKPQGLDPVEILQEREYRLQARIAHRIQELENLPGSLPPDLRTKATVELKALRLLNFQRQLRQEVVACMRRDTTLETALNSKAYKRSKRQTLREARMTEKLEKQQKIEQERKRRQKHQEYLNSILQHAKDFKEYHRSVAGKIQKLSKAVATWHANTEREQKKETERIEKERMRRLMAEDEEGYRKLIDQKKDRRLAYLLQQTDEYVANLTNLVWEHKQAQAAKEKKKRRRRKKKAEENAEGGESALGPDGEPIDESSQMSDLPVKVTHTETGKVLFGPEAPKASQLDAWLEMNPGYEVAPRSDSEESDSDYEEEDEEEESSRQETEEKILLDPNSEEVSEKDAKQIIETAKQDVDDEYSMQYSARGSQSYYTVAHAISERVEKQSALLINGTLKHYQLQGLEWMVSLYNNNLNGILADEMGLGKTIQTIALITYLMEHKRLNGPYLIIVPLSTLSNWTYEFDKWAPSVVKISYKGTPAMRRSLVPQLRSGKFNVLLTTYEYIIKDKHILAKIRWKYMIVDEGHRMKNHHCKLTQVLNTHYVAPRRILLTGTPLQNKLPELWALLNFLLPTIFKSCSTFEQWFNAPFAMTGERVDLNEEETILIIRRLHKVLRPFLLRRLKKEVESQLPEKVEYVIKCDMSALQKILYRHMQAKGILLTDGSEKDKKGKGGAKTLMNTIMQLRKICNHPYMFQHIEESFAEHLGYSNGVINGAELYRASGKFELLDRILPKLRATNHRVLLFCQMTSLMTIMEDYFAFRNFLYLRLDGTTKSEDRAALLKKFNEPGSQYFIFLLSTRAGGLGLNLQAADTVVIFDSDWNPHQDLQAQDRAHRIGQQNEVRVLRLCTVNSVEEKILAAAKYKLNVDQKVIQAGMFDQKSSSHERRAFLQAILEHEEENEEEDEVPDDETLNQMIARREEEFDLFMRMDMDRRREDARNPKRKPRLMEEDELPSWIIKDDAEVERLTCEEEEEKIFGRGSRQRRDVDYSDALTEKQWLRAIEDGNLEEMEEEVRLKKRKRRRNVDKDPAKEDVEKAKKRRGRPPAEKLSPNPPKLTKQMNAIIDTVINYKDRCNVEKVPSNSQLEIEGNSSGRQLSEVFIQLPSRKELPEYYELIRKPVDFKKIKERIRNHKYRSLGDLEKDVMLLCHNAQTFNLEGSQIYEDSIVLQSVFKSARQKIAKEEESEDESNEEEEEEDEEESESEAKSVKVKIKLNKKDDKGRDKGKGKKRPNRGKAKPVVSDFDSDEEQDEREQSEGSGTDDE

What does the source list for CC1(C)CC(=O)C(=NNc2ccc(Br)cc2)C(=O)C1?
IC50 [1]: > 50 µM (inactive); EC50 [2]: > 91.1 µM (inactive); EC50 [3]: > 91.1 µM (inactive); CC50 [4]: > 40 µM (active)

For CNC(=O)C[C@H]1CC[C@@H]2[C@@H](COc3ccc(NC(=O)Nc4ccc(Cl)cc4)cc3C(=O)N2C)O1, which AC50 [5] is on record?
Its AC50 is 29 µM (active).

With Cc1cc(F)ccc1C(O)c1nc(-c2ccccc2C(F)(F)F)c[nH]1 (stereo unspecified) as the compound, how does the AC50 [6] read?
Its AC50 is 33.5 µM (active).
